Laboratory results published in patent publication US20150290226A1, “NOVEL LYOPHILIZED COMPOSITIONS OF CYCLOPHOSPHAMIDE” (LEIUTIS PHARMACEUTICALS PVT. LTD., priority 2012, published 2015).
Where “and” joins values, the source holds several entries; their conditions need not be identical. Equal entries are not always repeated. Where two headings read alike, the source gives them in different places.

Assays:
[1] = Water activity of drug substance and lyophilizate; format: physicochemical; conditions: Sample numbers I, II, III, listed as Drug substance (Monohydrate Form)
Source text: (§1) The moisture content and water activity of the drug substance as well as the lyophilizate was checked to ensure the retention of the crystalline monohydrate form of the drug substance in the Lyophilizate. Water activity instruments measure the amount of free (sometimes referred to as unbound or active) water present in the sample and KF titration measures the total water in a sample.

[2] = Moisture content (KF titration) of drug substance and lyophilizate; format: physicochemical; conditions: Sample numbers I, II, III, listed as Drug substance (Monohydrate Form)
Source text: as §1

[3] = Source text: The change of description of Cyclophosphamide monohydrate at various temperatures was studied by exposing the drug to different temperatures under constant vacuum and details are given in Tables 6 & 7: […]
[4] = remark: listed apart in the source
Description: The solubility of Cyclophosphamide monohydrate in various solvents was checked. The quantity of solvent consumed for dissolving 100 mg of Cyclophosphamide monohydrate is given below: […]

[5] = Vacuum 1000 mtorr, +25° C. (5 hrs)
[6] = Vacuum 1000 mtorr, −2° C. (12 hrs)
[7] = Vacuum 1000 mtorr, −15° C. (19 hrs)
[8] = Vacuum 1000 mtorr, −25° C. (12 hrs)
[9] = Vacuum 1000 mtorr, −40° C. (5 hrs)

Cl.[O-][P+]1(N(CCCl)CCCl)NCCCO1 (stereo not drawn) [Cyclophosphamide monohydrate, 2-[bis(2-chloroethyl)amino]tetrahydro-2H-1,3,2-oxazaphosphorine 2-oxide monohydrate]
Water Activity (aw) [1]: 0.374 and 0.372 and 0.373 | Moisture Content (%) [2]: 6.64% and 6.75% and 6.72% | % Moisture content ([3]; Initial): 6.87% | Observation for Description ([3]; Initial): Powder | % Moisture content [3, 5]: 2.94% | Observation for Description [3, 5]: Liquid | % Moisture content [3, 6]: 4.52% | Observation for Description [3, 6]: Sticky | % Moisture content [3, 7]: 6.29% | Observation for Description [3, 7]: Powder | % Moisture content [3, 8]: 6.27% | Observation for Description [3, 8]: Powder | % Moisture content [3, 9]: 6.23% | Observation for Description [3, 9]: Powder | Description ([3]; −10 °C, 350 mtorr and 6 hours): Powder | Moisture Content (%) ([3]; −10 °C, 350 mtorr and 6 hours): 7.56% | Description ([3]; −15 °C, 350 mtorr and 12 hours): Powder | Moisture Content (%) ([3]; −15 °C, 350 mtorr and 12 hours): 6.99% | Description ([3]; −25 °C, 150 mtorr and 6 hours): Powder | Moisture Content (%) ([3]; −25 °C, 150 mtorr and 6 hours): 6.87% | Description ([3]; −25 °C, 150 mtorr and 15 hours): Sticky Mass | Moisture Content (%) ([3]; −25 °C, 150 mtorr and 15 hours): 4.55% | Description ([3]; −25 °C, 280 mtorr and 12 hours): Powder | Moisture Content (%) ([3]; −25 °C, 280 mtorr and 12 hours): 6.51% | quantity of solvent consumed for dissolving 100 mg ([4]; Acetone): 0.4 mL | quantity of solvent consumed for dissolving 100 mg ([4]; Acetonitrile): 0.5 mL | quantity of solvent consumed for dissolving 100 mg ([4]; Dimethyacetamide): 2.0 mL | quantity of solvent consumed for dissolving 100 mg ([4]; Ethanol): 0.5 mL | quantity of solvent consumed for dissolving 100 mg ([4]; Tertiary butyl alcohol): 0.5 mL | quantity of solvent consumed for dissolving 100 mg ([4]; Water): 2.45 mL
